What was measured:
[1] = target: T1, PI3K-α (PIK3CA) wild-type (WT), p110α/p85α complex (Homo sapiens, UniProt P42336); assay: PI3K-alpha kinase (PIK3CA) biochemical activity, ADP-Glo, wild-type; conditions: Soy PI lipid substrate
T1 construct: Recombinant, catalytically active human full length PIK3KA Wild-type and H1047R mutant; 6×His (N); purchased EMD Millipore Sigma 14-602M
Excerpt: (§1) PI3K-Alpha Kinase (PIK3CA) Activity, Wild-Type and H1047R Mutant and Determining IC50 Values for Inhibitors
(§2) Recombinant, catalytically active human full length PIK3KA Wild-type and H1047R mutant were purchased as 1:1 complex of N-terminal 6×his tagged p110α (catalytic) and untagged p85α (regulatory subunit) from EMD Millipore Sigma (cat. no. 14-602M and 14-792M, respectively). PIP2diC8 (Avanti Polar Lipids Inc., cat. no. 850185) or Soy PI (Avanti Polar Lipids Inc., cat. No. 840044P) was used as lipid substrate. PIP2diC8 or PI lyophilized powder was dissolved in milliQ water to a concentration of 1 mM just before use. 10 mM stock compounds in DMSO were serially diluted 1:3 to generate a 10-point curve and plated using an acoustic liquid handler system (Echo 550 series instrument, Labcyte). A 10× intermediate compound plate (200 uM starting compound concentration and 10% DMSO) was prepared before starting the reaction. A typical reaction mixture (50 uL) comprised 40 mM HEPES buffer, pH 7.4, 25 mM MgCl2, 0.01% v/v triton-X-100, 1% v/v DMSO, 20 mM NaCl, 1-5 nM WT or H1047R PI3K protein, 20 uM ATP, and 50 uM PIP2diC8 or Soy PI. 1% DMSO buffer alone without test compound was employed as MAX control (full activity in the absence of any inhibitor), and no enzyme control was used to determine the level of background Adenosine 5′-diphosphate (ADP) (MIN control). First, Wild-type (WT) and H1047R mutant protein in kinase buffer with all components except ATP were incubated with or without compound at 27° C. for 1 h. After the pre-incubation, the reaction was initiated by the addition of 20 uL of 50 uM ATP (20 uM final concentration). The reaction was allowed to proceed until about 10% conversion of ATP (2 uM ADP) at 27° C. After that time, 5 uL of reaction was mixed with 5 uL of ADP-Kinase Glo Reagent (ADP-Glo Kinase assay kit, Promega cat. no. V9102) supplemented with MgCl2 10 mM to stop the reaction and deplete the remaining ATP for 40 min at room temperature. Then, 10 uL of Kinase Detection Reagent (ADP-Glo Kinase assay kit, Promega cat. no. V9102) was added to simultaneously convert ADP to ATP and allow the newly synthesized ATP to be measured using a luciferase/luciferin reaction. After 30 min at room temperature the light generated was measured using a luminometer (EnVision plate reader, Perkin Elmer). Process data through Genedata-Screener tool. Relative IC50 values are determined using luminescence units by calculating percent inhibition with respect to on-plate “MIN” and “MAX” controls. Data was analyzed using a 4-parameter nonlinear logistic equation (four-parameter logistic concentration-response curve): Y=bot+[(top−bot)/1+(x/IC50)slope] where Y=% inhibition, X=concentration yielding y % inhibition, Bottom=minimum value of y attained by curve, Top=maximum value of y attained by curve and Slope=steepness of curve at IC50. % Inh=[(median Max−x/median Max−median Min)]·100 IC50: concentration of compound that reduces a given response (ligand binding, enzyme response) by 50%. IC50 relative: concentration giving half the compound's maximum response.

[2] = target: T2, PI3K-α (PIK3CA) H1047R mutant, p110α/p85α complex (Homo sapiens, UniProt P42336, H1047R); assay: PI3K-alpha kinase (PIK3CA) biochemical activity, ADP-Glo, H1047R mutant; conditions: Soy PI lipid substrate
T2 construct: Recombinant, catalytically active human full length PIK3KA Wild-type and H1047R mutant; 6×His (N); purchased EMD Millipore Sigma 14-792M
T2 sequence (P42336 whole entry H1047R): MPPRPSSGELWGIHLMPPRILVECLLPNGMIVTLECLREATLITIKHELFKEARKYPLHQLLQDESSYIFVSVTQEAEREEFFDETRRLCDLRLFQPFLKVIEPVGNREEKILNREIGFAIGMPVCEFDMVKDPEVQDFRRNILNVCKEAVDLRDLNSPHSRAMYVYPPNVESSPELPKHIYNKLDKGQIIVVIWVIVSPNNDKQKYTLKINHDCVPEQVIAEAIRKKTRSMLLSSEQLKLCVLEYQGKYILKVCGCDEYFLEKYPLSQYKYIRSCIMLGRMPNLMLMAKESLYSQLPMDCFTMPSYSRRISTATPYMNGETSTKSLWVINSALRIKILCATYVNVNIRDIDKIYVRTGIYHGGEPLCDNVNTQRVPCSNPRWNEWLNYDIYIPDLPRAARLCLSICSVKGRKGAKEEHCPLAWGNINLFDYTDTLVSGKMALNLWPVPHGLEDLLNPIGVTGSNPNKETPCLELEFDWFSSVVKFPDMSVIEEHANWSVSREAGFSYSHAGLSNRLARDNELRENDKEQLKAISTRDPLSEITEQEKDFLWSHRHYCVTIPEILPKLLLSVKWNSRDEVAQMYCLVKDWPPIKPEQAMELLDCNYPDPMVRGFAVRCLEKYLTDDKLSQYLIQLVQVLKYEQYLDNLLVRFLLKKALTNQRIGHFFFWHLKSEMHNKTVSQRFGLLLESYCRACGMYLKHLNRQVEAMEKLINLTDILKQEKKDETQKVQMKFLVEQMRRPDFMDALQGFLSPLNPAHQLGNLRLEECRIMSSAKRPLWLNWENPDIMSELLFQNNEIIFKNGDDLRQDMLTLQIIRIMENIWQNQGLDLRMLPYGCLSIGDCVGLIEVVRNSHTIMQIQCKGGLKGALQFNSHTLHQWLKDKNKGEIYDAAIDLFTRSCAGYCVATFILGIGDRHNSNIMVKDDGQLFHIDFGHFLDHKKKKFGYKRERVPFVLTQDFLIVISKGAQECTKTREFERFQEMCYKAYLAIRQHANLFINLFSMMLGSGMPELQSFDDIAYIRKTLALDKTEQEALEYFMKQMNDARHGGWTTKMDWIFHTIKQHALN
T2 sequence (P27986 whole entry partner): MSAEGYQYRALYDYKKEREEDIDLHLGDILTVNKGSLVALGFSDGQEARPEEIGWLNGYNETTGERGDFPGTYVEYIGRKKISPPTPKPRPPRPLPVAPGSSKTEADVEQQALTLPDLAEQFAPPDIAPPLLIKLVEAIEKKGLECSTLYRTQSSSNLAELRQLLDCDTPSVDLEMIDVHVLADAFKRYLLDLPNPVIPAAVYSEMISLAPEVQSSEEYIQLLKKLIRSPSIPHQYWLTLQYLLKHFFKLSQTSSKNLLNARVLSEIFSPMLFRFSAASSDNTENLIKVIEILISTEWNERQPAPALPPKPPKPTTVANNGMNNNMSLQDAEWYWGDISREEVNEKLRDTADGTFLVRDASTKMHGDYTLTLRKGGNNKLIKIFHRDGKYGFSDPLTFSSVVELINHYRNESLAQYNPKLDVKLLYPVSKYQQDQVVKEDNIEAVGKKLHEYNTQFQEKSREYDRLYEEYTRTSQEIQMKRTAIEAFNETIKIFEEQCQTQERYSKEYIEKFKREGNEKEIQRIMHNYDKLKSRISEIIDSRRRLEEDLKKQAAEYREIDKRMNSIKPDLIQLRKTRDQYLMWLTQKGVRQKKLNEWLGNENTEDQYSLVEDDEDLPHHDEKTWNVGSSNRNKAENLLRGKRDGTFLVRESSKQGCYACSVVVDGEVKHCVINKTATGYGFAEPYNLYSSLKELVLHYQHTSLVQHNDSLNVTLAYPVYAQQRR
Excerpt: as §1, §2

| Compound | IC50 [1] [nM] | IC50 [2] [nM] |
| --- | --- | --- |
| Cc1cc(C(C)Nc2ccccc2C(=O)O)c2oc(-c3ccc4nnc(C(F)(F)F)n4c3)cc(=O)c2c1 (single isomer, unassigned) [Example 162, 2-[1-[6-Methyl-4-oxo-2-[3-(trifluoromethyl)-[1,2,4]triazolo[4,3-a]pyridin-6-yl]chromen-8-yl]ethylamino]benzoic acid] | > 10000 | 500 to 1000 |
| Cc1cc(C(C)Nc2ccccc2C(=O)O)c2oc(-c3cnn4ccccc34)cc(=O)c2c1 (stereo not drawn) [Example 10, 2-[1-(6-Methyl-4-oxo-2-pyrazolo[1,5-a]pyridin-3-yl-chromen-8-yl)ethylamino]benzoic acid] | 1000 to 5000 | < 500 |
| Cc1cc(C(C)Nc2ccccc2C(=O)O)c2oc(-c3cnc4nn(C)cc4c3)cc(=O)c2c1 (single isomer, unassigned) [Example 41, 2-[1-[6-Methyl-2-(2-methylpyrazolo[3,4-b]pyridin-5-yl)-4-oxo-chromen-8-yl]ethylamino]benzoic acid] | 5000 to 10000 | 1000 to 5000 |
| CC(Nc1cccnc1C(=O)O)c1cc(C(F)(F)F)cc2c(=O)cc(-c3cc4ccccc4[nH]3)oc12 (stereo not drawn) [Example 185, 3-[1-[2-(1H-Indol-2-yl)-4-oxo-6-(trifluoromethyl)chromen-8-yl]ethylamino]pyridine-2-carboxylic acid] | > 10000 | > 10000 |
| Cc1cc(C(C)Nc2ccccc2C(=O)O)c2oc(-c3cccn4ccnc34)cc(=O)c2c1 (single isomer, unassigned) [Example 127, 2-[1-(2-Imidazo[1,2-a]pyridin-8-yl-6-methyl-4-oxo-chromen-8-yl)ethylamino]benzoic acid] | 5000 to 10000 | 500 to 1000 |
| Cc1cc(C(C)Nc2ccccc2C(=O)O)c2oc(-c3ccc4nncn4c3)cc(=O)c2c1 (single isomer, unassigned) [Example 76, 2-[1-[6-Methyl-4-oxo-2-([1,2,4]triazolo[4,3-a]pyridin-6-yl)chromen-8-yl]ethylamino]benzoic acid] | > 10000 | < 500 |
| Cc1cc(C(C)Nc2ccccc2C(=O)O)c2oc(-c3cnc4cn(C)nc4c3)cc(=O)c2c1 (single isomer, unassigned) [Example 43, 2-[1-[6-Methyl-2-(2-methylpyrazolo[4,3-b]pyridin-6-yl)-4-oxo-chromen-8-yl]ethylamino]benzoic acid] | > 10000 | > 10000 |
| Cc1cc(C(C)Nc2ccc(C)nc2C(=O)O)c2oc(-c3ccc4nn(C)cc4c3)cc(=O)c2c1 (single isomer, unassigned) [Example 180, 6-Methyl-3-[1-[6-methyl-2-(2-methylindazol-5-yl)-4-oxo-chromen-8-yl]ethylamino]pyridine-2-carboxylic acid] | 1000 to 5000 | < 500 |
| Cc1cc(C(C)Nc2ccccc2C(=O)O)c2oc(-c3ccc4c(c3)CN(C)C4=O)cc(=O)c2c1 (stereo not drawn) [Example 30, 2-[1-[6-Methyl-2-(2-methyl-1-oxo-isoindolin-5-yl)-4-oxo-chromen-8-yl]ethylamino]benzoic acid] | 1000 to 5000 | < 500 |
| Cc1cc(-c2cc(=O)c3cc(C(F)(F)F)cc(C(C)Nc4ccc(Cl)nc4C(=O)O)c3o2)cc2cn(C)nc12 (stereo not drawn) [Example 174, 6-Chloro-3-[1-[2-(2,7-dimethylindazol-5-yl)-4-oxo-6-(trifluoromethyl)chromen-8-yl]ethylamino]pyridine-2-carboxylic acid] | > 10000 | < 500 |

Second part, the compound after the results:

| IC50 [1] [nM] | IC50 [2] [nM] | Compound |
| --- | --- | --- |
| 1000 to 5000 | 1000 to 5000 | Cc1cc(C(C)Nc2ccccc2C(=O)O)c2oc(-c3c4ccccc4nn3C)cc(=O)c2c1 (single isomer, unassigned) [Example 119, 2-[1-[6-Methyl-2-(2-methylindazol-3-yl)-4-oxo-chromen-8-yl]ethylamino]benzoic acid] |
| 1000 to 5000 | 500 to 1000 | Cc1cc(C(C)Nc2ccccc2C(=O)O)c2oc(-c3ccc4nc(C)cn4n3)cc(=O)c2c1 (single isomer, unassigned) [Example 107, 2-[1-[6-Methyl-2-(2-methylimidazo[1,2-b]pyridazin-6-yl)-4-oxo-chromen-8-yl]ethylamino]benzoic acid] |
| < 500 | < 500 | Cc1cc(C(C)Nc2cccc(F)c2C(=O)O)c2oc(-c3ccc4nn(C)cc4c3)cc(=O)c2c1 (single isomer, unassigned) [Example 172, 2-Fluoro-6-[1-[6-methyl-2-(2-methylindazol-5-yl)-4-oxo-chromen-8-yl]ethylamino]benzoic acid] |
| 1000 to 5000 | < 500 | Cc1cc(C(C)Nc2ccccc2C(=O)O)c2oc(-c3ccc4nc(C)cn4c3)c(C#N)c(=O)c2c1 (single isomer, unassigned) [Example 118, 2-[1-[3-Cyano-6-methyl-2-(2-methylimidazo[1,2-a]pyridin-6-yl)-4-oxo-chromen-8-yl]ethylamino]benzoic acid] |
| 1000 to 5000 | < 500 | Cc1cc(C(C)Nc2ccccc2C(=O)O)c2oc(-c3ccc4ccnn4c3)cc(=O)c2c1 (single isomer, unassigned) [Example 67, 2-[1-(6-Methyl-4-oxo-2-pyrazolo[1,5-a]pyridin-6-yl-chromen-8-yl)ethylamino]benzoic acid] |
| 1000 to 5000 | < 500 | Cc1cc(C(C)Nc2ccccc2C(=O)O)c2oc(-c3ccc4nccn4n3)cc(=O)c2c1 (single isomer, unassigned) [Example 36, 2-[1-(2-Imidazo[1,2-b]pyridazin-6-yl-6-methyl-4-oxo-chromen-8-yl)ethylamino]benzoic acid] |
| < 500 | < 500 | Cc1cc(C(C)Nc2ccccc2C(=O)O)c2oc(-c3ccc4nn(C)cc4c3)cc(=O)c2c1 (stereo not drawn) [Example 13, 2-[1-[6-Methyl-2-(2-methylindazol-5-yl)-4-oxo-chromen-8-yl]ethylamino]benzoic acid] |
| 1000 to 5000 | < 500 | Cc1cn2nc(-c3cc(=O)c4cc(C(F)(F)F)cc(C(C)Nc5ccccc5C(=O)O)c4o3)ccc2n1 (single isomer, unassigned) [Example 101, 2-[1-[2-(2-Methylimidazo[1,2-b]pyridazin-6-yl)-4-oxo-6-(trifluoromethyl)chromen-8-yl]ethylamino]benzoic acid] |
| 1000 to 5000 | < 500 | Cc1ccc2c(cnn2-c2cc(=O)c3cc(C)cc(C(C)Nc4ccccc4C(=O)O)c3o2)c1 (single isomer, unassigned) [Example 87, 2-[1-[6-Methyl-2-(5-methylindazol-1-yl)-4-oxo-chromen-8-yl]ethylamino]benzoic acid] |
| 500 to 1000 | < 500 | Cc1cc(C(C)Nc2ccc(Cl)c(F)c2C(=O)O)c2oc(-c3ccc4nc(C)cn4c3)cc(=O)c2c1 (single isomer, unassigned) [Example 183, 3-chloro-2-fluoro-6-[1-[6-methyl-2-(2-methylimidazo[1,2-a]pyridin-6-yl)-4-oxo-chromen-8-yl]ethylamino]benzoic acid] |
| 500 to 1000 | 500 to 1000 | CC(Nc1ccc(Cl)nc1C(=O)O)c1cc(C(F)(F)F)cc2c(=O)cc(-c3cc(Cl)c4nn(C)cc4c3)oc12 (single isomer, unassigned) [Example 194, 6-Chloro-3-[1-[2-(7-chloro-2-methyl-indazol-5-yl)-4-oxo-6-(trifluoromethyl)chromen-8-yl]ethylamino]pyridine-2-carboxylic acid] |
